# Measurements reported in ChEMBL document CHEMBL5634193, “Discovery of CVN293, a Brain Permeable KCNK13 (THIK-1) Inhibitor Suitable for Clinical Assessment” (ACS Med Chem Lett, 2024).
# Calls of active or inactive are those of the source. No cut-off for these calls is given here.
# Experiments:
# [1] = Protein binding in mouse plasma assessed as unbound fraction by equilibrium dialysis; type: ADME, cell-free
# [2] = Protein binding in mouse brain assessed as unbound fraction by equilibrium dialysis; type: ADME, tissue-based
# [3] = Unbound drug concentration in C57BL/6 mouse brain at 10 mg/kg, po measured after 4 hrs by LC-MS/MS analysis; type: ADME, organism-based; details: in vivo
# [4] = Ratio of drug concentration in brain to plasma C57BL/6 mouse at 10 mg/kg, po measured after 4 hrs by LC-MS/MS analysis; type: ADME, organism-based; details: brain and plasma, read-out: BPR
# [5] = Ratio of unbound drug concentration in brain to plasma C57BL/6 mouse at 10 mg/kg, po measured after 4 hrs by LC-MS/MS analysis; type: ADME, organism-based; details: brain and plasma, read-out: K(p,uu,brain)
# [6] = Clearance in Sprague-Dawley rat at 0.5 mg/kg, iv; type: ADME, organism-based; details: in vivo
# [7] = Volume of distribution at steady state in Sprague-Dawley rat at 0.5 mg/kg, iv; type: ADME, organism-based; details: in vivo, read-out: Vdss
# [8] = C0 in Sprague-Dawley rat at 0.5 mg/kg, iv; type: ADME, organism-based; details: in vivo
# [9] = AUC (0 to infinity) in Sprague-Dawley rat at 0.5 mg/kg, iv; type: ADME, organism-based; details: in vivo
# [10] = Half life in Sprague-Dawley rat at 0.5 mg/kg, iv; type: ADME, organism-based; details: in vivo
# [11] = Cmax in Sprague-Dawley rat at 3 mg/kg, po; type: ADME, organism-based; details: in vivo
# [12] = Tmax in Sprague-Dawley rat at 3 mg/kg, po; type: ADME, organism-based; details: in vivo
# [13] = AUC (0 to infinity) in Sprague-Dawley rat at 3 mg/kg, po; type: ADME, organism-based; details: in vivo
# [14] = Clearance in Beagle dog at 1 mg/kg, iv; type: ADME, organism-based, Canis lupus familiaris; details: in vivo
# [15] = Volume of distribution at steady state in Beagle dog at 1 mg/kg, iv; type: ADME, organism-based, Canis lupus familiaris; details: in vivo, read-out: Vdss
# [16] = C0 in Beagle dog at 1 mg/kg, iv; type: ADME, organism-based, Canis lupus familiaris; details: in vivo
# [17] = Half life in Beagle dog at 1 mg/kg, iv; type: ADME, organism-based, Canis lupus familiaris; details: in vivo
# [18] = Cmax in Beagle dog at 10 mg/kg, po; type: ADME, organism-based, Canis lupus familiaris; details: in vivo
# [19] = AUC (0 to infinity) in Beagle dog at 10 mg/kg, po; type: ADME, organism-based, Canis lupus familiaris; details: in vivo
# [20] = Half life in Beagle dog at 10 mg/kg, po; type: ADME, organism-based, Canis lupus familiaris; details: in vivo
# [21] = Oral bioavailability in Beagle dog at 10 mg/kg; type: ADME, organism-based, Canis lupus familiaris; details: in vivo
# [22] = Clearance in Cynomolgus monkey at 1 mg/kg, iv; type: ADME, organism-based, Macaca fascicularis; details: in vivo
# [23] = AUC (0 to infinity) in Cynomolgus monkey at 1 mg/kg, iv; type: ADME, organism-based, Macaca fascicularis; details: in vivo
# [24] = AUC (0 to infinity) in Cynomolgus monkey at 3 mg/kg, po; type: ADME, organism-based, Macaca fascicularis; details: in vivo
# [25] = Half life in Cynomolgus monkey at 3 mg/kg, po; type: ADME, organism-based, Macaca fascicularis; details: in vivo
# [26] = Oral bioavailability in Cynomolgus monkey at 3 mg/kg; type: ADME, organism-based, Macaca fascicularis; details: in vivo
# [27] = biological target: T1, Potassium channel subfamily K member 13 (Homo sapiens, UniProt Q9HB14); experiment: Inhibition of human KCNK13 transfected in HEK293 cells assessed as reduction in thallium influx incubated for 15 mins in dark by FLIPR assay; type: cell-based
# T1 sequence (Q9HB14 whole entry): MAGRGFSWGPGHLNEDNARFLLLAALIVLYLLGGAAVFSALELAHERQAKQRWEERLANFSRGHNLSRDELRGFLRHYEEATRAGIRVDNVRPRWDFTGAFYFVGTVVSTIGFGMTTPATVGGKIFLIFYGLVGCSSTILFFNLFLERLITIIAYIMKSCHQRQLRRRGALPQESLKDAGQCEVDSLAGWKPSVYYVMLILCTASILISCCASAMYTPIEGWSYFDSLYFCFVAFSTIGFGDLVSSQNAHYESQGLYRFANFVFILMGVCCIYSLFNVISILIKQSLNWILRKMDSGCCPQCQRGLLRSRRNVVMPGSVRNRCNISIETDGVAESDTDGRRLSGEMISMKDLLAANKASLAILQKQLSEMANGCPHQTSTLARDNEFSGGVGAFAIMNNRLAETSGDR
# [28] = biological target: T2, Potassium channel subfamily K member 13 (Mus musculus, UniProt Q8R1P5); experiment: Inhibition of mouse KCNK13 transfected in HEK293 cells assessed as reduction in thallium influx incubated for 15 mins in dark by FLIPR assay; type: cell-based
# T2 sequence (Q8R1P5 whole entry): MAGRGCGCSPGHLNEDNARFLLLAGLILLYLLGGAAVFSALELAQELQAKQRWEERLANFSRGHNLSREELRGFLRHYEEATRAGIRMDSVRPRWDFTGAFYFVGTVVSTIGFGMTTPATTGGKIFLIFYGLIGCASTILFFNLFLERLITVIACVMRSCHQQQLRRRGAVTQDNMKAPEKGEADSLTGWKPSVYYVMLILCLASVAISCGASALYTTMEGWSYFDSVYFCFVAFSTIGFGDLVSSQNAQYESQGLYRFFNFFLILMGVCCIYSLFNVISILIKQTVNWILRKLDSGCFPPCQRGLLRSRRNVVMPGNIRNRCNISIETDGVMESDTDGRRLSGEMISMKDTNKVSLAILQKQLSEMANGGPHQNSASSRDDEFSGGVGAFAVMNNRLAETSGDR
# [29] = biological target: T3, Potassium channel subfamily K member 13 (Mus musculus) (UniProt Q8R1P5); experiment: Inhibition of mouse KCNK13 transfected in HEK293 cells assessed as reduction in thallium influx incubated for 15 mins in dark by FLIPR assay relative to control; type: cell-based
# T3 sequence (whole entry): T2 sequence (Q8R1P5 whole entry)
# HEK293 = experiment: Inhibition of recombinant human KCNK6 transfected in HEK293 cells assessed as reduction in thallium influx at 30 uM incubated for 15 mins in dark by FLIPR assay relative to control; type: cell-based
# [30] = biological target: NACHT, LRR and PYD domains-containing protein 3 (Mus musculus) (UniProt Q8R4B8); experiment: Inhibition of NLRP3 inflammasome-mediated IL-1beta release in LPS-primed neonatal C57BL/6 P1-4 mouse microglia pretreated for 30 mins followed by media removal and compound re-addition with K+-free buffer measured after 2 hrs by ELISA relative to control; type: cell-based; details: time 150.0 min
# [31] = biological target: NACHT, LRR and PYD domains-containing protein 3 (Mus musculus) (UniProt Q8R4B8); experiment: Inhibition of NLRP3 inflammasome-mediated IL-1beta release in LPS/ATP-induced C57Bl6 mouse hippocampus at 1 uM pretreated for 1 hr followed by ATP addition measured after 3 hrs by ELISA; type: tissue-based; details: time 4.0 hrs
# Mus musculus = species: Mus musculus; experiment: Effect on IL-1beta release in LPS-induced C57Bl6 mouse hippocampus upto 5 uM treated for 1 hr by ELISA; type: functional, tissue-based
# [32] = biological target: Voltage-gated inwardly rectifying potassium channel KCNH2 (Homo sapiens, UniProt Q12809); experiment: Inhibition of hERG; type: toxicity
# [33] = biological target: Sodium channel protein type 5 subunit alpha (Homo sapiens, UniProt Q14524); experiment: Inhibition of NaV1.5 (unknown origin); type: toxicity
# [34] = biological target: Voltage-dependent L-type calcium channel subunit alpha-1C (Homo sapiens, UniProt Q13936); experiment: Inhibition of CaV1.2 (unknown origin); type: toxicity
# KCNK2 (Homo sapiens) = experiment: Inhibition of recombinant human KCNK2 transfected in HEK293 cells assessed as reduction in thallium influx at 30 uM incubated for 15 mins in dark by FLIPR assay relative to control
# NACHT, LRR and PYD domains-containing protein 3 (Mus musculus), sequence (Q8R4B8 whole entry, the tested form may be a part): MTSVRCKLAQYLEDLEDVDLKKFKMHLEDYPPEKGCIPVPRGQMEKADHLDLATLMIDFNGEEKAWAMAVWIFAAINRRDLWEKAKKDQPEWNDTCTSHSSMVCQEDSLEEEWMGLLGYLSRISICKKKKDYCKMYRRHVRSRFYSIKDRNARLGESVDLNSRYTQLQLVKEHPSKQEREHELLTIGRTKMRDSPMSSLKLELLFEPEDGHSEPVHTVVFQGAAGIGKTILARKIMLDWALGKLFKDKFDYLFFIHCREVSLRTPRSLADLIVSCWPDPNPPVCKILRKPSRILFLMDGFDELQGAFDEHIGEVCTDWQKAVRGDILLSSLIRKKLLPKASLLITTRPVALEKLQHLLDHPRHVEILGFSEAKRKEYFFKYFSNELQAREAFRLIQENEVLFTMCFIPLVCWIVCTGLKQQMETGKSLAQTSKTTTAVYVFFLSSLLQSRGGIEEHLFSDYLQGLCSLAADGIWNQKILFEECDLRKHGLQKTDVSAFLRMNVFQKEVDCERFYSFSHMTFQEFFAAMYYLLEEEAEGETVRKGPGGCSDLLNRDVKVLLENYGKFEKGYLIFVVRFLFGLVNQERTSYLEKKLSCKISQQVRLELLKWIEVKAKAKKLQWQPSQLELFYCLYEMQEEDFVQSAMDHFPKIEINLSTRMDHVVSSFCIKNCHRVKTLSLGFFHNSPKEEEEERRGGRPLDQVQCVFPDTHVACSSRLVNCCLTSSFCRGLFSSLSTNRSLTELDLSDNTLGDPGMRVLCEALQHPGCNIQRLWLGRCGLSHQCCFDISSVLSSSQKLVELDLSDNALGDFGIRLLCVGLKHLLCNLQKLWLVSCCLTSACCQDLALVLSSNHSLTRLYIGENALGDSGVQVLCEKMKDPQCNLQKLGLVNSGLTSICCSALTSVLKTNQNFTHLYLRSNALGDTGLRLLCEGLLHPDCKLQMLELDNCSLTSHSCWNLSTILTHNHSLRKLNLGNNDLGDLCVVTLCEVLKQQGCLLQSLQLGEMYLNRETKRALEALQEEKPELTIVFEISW
# Voltage-gated inwardly rectifying potassium channel KCNH2, sequence (Q12809 whole entry): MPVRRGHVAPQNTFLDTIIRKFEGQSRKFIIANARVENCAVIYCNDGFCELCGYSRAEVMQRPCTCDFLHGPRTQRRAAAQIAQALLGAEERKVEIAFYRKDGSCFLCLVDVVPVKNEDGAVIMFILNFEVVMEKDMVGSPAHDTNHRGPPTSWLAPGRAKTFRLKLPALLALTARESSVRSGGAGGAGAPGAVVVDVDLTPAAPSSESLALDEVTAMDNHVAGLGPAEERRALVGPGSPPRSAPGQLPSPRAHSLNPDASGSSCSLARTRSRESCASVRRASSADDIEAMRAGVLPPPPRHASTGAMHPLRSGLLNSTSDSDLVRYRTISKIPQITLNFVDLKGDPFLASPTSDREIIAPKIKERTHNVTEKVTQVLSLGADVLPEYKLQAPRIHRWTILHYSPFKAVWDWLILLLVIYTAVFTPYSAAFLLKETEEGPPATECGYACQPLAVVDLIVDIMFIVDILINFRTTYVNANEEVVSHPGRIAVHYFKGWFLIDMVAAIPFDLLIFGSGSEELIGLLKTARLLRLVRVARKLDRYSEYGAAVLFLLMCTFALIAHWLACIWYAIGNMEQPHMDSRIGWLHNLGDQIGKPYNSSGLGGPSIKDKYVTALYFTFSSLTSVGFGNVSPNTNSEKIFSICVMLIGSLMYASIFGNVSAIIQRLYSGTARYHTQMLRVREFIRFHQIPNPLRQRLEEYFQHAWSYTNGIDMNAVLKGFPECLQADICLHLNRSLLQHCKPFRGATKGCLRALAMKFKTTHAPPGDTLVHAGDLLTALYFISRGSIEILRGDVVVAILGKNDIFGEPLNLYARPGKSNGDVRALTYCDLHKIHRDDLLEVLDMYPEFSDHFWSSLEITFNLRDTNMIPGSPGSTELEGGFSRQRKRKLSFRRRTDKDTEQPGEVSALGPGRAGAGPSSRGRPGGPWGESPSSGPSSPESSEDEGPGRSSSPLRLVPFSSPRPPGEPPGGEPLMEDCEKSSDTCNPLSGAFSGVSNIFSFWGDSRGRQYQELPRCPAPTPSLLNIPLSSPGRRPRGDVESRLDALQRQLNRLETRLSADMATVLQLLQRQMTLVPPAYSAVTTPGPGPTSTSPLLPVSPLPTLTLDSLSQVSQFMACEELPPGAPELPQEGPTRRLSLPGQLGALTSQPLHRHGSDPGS
# Voltage-dependent L-type calcium channel subunit alpha-1C, sequence (Q13936 whole entry): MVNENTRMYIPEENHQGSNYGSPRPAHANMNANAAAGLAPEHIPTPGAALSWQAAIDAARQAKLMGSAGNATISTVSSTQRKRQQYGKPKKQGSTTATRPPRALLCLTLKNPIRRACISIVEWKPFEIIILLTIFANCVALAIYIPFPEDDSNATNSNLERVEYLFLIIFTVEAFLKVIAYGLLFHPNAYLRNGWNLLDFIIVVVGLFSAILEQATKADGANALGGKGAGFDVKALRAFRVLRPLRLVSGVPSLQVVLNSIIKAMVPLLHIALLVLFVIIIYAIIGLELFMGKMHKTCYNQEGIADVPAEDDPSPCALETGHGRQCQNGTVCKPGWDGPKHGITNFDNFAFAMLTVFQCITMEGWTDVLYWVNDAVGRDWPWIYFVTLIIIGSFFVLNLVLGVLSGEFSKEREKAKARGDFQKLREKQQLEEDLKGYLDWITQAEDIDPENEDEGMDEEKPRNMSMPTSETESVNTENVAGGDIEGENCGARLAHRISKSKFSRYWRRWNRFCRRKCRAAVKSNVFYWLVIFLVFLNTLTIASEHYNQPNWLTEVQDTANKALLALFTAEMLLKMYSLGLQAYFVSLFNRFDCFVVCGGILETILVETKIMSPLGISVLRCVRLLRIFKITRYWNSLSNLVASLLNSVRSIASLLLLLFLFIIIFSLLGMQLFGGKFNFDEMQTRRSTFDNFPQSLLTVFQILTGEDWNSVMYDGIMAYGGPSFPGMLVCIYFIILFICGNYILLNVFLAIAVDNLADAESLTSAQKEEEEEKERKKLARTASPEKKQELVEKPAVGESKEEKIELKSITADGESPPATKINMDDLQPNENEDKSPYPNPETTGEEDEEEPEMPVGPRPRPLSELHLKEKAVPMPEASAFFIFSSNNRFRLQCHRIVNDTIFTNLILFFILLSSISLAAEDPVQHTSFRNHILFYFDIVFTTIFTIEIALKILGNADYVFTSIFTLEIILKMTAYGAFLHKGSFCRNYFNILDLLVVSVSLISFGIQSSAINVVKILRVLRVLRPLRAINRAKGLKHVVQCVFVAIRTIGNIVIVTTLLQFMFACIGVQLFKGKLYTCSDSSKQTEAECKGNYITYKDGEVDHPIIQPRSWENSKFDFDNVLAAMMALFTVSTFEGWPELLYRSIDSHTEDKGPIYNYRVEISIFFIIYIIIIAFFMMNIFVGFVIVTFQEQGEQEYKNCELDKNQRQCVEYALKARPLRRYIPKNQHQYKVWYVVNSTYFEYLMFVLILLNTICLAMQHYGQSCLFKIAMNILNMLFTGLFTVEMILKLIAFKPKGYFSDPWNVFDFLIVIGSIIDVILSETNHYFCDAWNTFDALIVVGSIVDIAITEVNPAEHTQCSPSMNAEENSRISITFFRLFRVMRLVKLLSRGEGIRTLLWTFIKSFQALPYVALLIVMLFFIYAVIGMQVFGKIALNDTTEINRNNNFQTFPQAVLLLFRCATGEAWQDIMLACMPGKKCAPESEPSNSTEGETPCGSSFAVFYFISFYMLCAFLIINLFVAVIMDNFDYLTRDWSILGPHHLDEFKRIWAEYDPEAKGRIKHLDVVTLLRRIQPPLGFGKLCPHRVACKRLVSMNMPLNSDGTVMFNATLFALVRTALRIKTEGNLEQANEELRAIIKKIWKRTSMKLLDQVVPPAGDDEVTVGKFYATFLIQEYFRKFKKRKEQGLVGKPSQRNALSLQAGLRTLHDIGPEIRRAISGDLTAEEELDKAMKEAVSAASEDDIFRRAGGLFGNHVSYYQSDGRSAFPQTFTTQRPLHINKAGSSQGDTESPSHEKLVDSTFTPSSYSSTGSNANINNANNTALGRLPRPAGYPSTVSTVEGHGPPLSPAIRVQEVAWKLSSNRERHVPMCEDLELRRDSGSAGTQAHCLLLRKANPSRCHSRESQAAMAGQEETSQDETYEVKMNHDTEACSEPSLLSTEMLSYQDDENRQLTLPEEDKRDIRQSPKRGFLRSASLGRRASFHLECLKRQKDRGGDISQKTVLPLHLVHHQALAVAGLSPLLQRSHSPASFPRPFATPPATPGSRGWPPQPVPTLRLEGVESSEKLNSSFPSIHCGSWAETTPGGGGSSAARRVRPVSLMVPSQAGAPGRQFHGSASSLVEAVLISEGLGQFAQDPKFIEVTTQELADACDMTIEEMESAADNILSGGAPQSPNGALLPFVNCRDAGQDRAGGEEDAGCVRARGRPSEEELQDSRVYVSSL
structure (smiles),measurement,setting,value
Nc1nonc1-c1nc2cccc(F)c2n1Cc1cccnn1,fraction unbound,[1],0.173
same,fraction unbound,[2],0.136
same,Cp(f),[3],0.248 µM
same,Kp at 4 h,[4],0.84
same,Kp uu at 4 h,[5],0.66
same,clearance,[6],2.1 L/h/kg
same,Vd,[7],1.85 L/kg
same,C0,[8],0.304 µg/mL
same,AUC(0-inf),[9],0.222 µg·h/mL
same,half-life,[10],1 h
same,Cmax,[11],0.468 µg/mL
same,Tmax,[12],1 h
same,AUC(0-inf),[13],1.24 µg·h/mL
same,clearance,[14],2.28 L/h/kg
same,Vd,[15],1.42 L/kg
same,C0,[16],0.626 µg/mL
same,half-life,[17],0.5 h
same,Cmax,[18],0.241 µg/mL
same,AUC,[19],0.63 µg·h/mL
same,half-life,[20],2.6 h
same,F,[21],41%
same,clearance,[22],1.32 L/h/kg
same,AUC(0-inf),[23],0.782 µg·h/mL
same,AUC(0-inf),[24],0.546 µg·h/mL
same,half-life,[25],1.9 h
same,bioavailability,[26],24%
same,IC50,[27],0.041 µM
same,IC50,[28],0.028 µM
same,Imax,[29],97%
same,Imax,HEK293,10.7%
same,Imax,[30],59.1%
same,inhibition,[31],Active
same,Activity,Mus musculus,inactive
same,inhibition (INH),[32],Not Active
same,inhibition (INH),[33],Not Active
same,inhibition (INH),[34],Not Active
same,Imax,KCNK2 (Homo sapiens),17.4%
